Test results published in ChEMBL document CHEMBL5143555, “Potentiating the intracellular killing of Staphylococcus aureus by dihydroquinazoline analogues as NorA efflux pump inhibitor” (Bioorg Med Chem, 2022).

Columns and labels:
Staphylococcus aureus [1] = experiment: Bactericidal activity against Staphylococcus aureus 1199B assessed as log reduction in bacterial count at 50 ug/mL measured after 8 hrs by time-kill kinetics assay; format: functional; details: dose 50 µg/ml
Staphylococcus aureus [2] = experiment: Antibacterial activity against Staphylococcus aureus 1199B measured after 24 hrs by Muller Hinton broth based MTT assay; format: functional

SMILES: CC[n+]1c(-c2ccccc2)c2cc(N)ccc2c2ccc(N)cc21.[Br-] [HOMIDIUM BROMIDE]
- Activity (Staphylococcus aureus [1]): >3 log10CFU/ml
- MIC (Staphylococcus aureus [2]): 50 µg/mL
